Test results: ChEMBL document CHEMBL4325871 (Eur J Med Chem, 2019)

Columns and labels:
[1] = target: Kinase suppressor of Ras 2 (Homo sapiens) (UniProt Q6VAB6); test: Inhibition of human KSR2 assessed as residual activity at 1 uM using KRREILSRRPSYR as substrate by [gamma-33P]-ATP assay relative to control
[2] = target: Wee1-like protein kinase (Homo sapiens) (UniProt P30291); test: Inhibition of human WEE1 assessed as residual activity at 1 uM using MBP as substrate by [gamma-33P]-ATP assay relative to control
Sequence of Wee1-like protein kinase (Homo sapiens) (P30291 whole entry, looked up): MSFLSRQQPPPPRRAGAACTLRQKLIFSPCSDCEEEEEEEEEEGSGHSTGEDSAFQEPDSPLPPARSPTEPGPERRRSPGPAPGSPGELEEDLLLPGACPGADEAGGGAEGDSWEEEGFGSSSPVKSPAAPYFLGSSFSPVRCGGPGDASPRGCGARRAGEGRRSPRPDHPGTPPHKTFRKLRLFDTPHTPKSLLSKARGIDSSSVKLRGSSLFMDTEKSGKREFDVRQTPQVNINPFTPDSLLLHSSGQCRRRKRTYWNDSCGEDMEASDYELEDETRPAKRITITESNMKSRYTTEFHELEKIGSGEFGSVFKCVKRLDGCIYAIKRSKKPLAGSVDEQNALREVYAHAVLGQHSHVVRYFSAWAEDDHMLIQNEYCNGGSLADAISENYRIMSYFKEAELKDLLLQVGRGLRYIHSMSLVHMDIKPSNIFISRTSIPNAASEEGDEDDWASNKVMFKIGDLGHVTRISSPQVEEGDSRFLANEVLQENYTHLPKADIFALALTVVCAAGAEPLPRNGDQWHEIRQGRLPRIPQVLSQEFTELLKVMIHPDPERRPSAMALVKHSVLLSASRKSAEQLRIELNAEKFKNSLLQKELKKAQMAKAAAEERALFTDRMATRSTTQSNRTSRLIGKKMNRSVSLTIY

[3] = target: Dual specificity mitogen-activated protein kinase kinase 7 (Homo sapiens) (UniProt O14733); test: Inhibition of human MKK7 assessed as residual activity at 1 uM using JNK as substrate by [gamma-33P]-ATP assay relative to control
Sequence of Dual specificity mitogen-activated protein kinase kinase 7 (Homo sapiens) (O14733 whole entry): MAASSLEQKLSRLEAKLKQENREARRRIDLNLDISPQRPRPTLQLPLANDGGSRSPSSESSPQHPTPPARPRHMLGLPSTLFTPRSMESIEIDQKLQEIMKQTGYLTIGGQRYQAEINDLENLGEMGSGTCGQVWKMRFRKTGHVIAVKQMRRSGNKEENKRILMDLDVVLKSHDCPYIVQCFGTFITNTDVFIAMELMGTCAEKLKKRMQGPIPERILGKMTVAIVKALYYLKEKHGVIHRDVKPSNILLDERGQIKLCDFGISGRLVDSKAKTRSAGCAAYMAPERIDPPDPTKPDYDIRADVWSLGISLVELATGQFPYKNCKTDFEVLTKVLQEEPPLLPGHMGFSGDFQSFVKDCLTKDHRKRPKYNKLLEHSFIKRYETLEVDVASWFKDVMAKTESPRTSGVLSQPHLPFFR

[4] = target: CDK18/Cyclin Y (Homo sapiens) (UniProt Q07002+Q8ND76); test: Inhibition of human CDK18/cyclin-Y assessed as residual activity at 1 uM using RB protein as substrate by [gamma-33P]-ATP assay relative to control; assay type: protein-complex assay
[5] = target: Serine/threonine-protein kinase pim-3 (Homo sapiens) (UniProt Q86V86); test: Inhibition of human PIM3 assessed as residual activity at 1 uM using RSRHSSYPAGT as substrate by [gamma-33P]-ATP assay relative to control
[6] = target: MAP kinase-activated protein kinase 5 (Homo sapiens) (UniProt Q8IW41); test: Inhibition of human MAPKAPK5 assessed as residual activity at 1 uM using KKLNRTLSVA as substrate by [gamma-33P]-ATP assay relative to control
Sequence of MAP kinase-activated protein kinase 5 (Homo sapiens) (Q8IW41 whole entry): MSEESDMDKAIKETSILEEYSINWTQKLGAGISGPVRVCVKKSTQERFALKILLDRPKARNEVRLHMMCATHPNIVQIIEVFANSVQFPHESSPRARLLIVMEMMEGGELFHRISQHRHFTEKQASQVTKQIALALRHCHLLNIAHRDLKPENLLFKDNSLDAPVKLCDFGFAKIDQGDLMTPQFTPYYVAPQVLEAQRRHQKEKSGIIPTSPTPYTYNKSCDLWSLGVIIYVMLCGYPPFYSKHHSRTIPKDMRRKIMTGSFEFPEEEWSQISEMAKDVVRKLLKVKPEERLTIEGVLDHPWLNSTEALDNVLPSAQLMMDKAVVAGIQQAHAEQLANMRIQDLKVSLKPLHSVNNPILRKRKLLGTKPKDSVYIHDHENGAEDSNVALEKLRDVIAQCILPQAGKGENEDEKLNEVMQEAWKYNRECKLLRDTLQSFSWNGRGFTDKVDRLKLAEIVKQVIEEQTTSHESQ

[7] = target: Serine/threonine-protein kinase DCLK1 (Homo sapiens) (UniProt O15075); test: Inhibition of human DCAMKL1 assessed as residual activity at 1 uM using KKLNRTLSFAEPG as substrate by [gamma-33P]-ATP assay relative to control
Sequence of Serine/threonine-protein kinase DCLK1 (Homo sapiens) (O15075 whole entry): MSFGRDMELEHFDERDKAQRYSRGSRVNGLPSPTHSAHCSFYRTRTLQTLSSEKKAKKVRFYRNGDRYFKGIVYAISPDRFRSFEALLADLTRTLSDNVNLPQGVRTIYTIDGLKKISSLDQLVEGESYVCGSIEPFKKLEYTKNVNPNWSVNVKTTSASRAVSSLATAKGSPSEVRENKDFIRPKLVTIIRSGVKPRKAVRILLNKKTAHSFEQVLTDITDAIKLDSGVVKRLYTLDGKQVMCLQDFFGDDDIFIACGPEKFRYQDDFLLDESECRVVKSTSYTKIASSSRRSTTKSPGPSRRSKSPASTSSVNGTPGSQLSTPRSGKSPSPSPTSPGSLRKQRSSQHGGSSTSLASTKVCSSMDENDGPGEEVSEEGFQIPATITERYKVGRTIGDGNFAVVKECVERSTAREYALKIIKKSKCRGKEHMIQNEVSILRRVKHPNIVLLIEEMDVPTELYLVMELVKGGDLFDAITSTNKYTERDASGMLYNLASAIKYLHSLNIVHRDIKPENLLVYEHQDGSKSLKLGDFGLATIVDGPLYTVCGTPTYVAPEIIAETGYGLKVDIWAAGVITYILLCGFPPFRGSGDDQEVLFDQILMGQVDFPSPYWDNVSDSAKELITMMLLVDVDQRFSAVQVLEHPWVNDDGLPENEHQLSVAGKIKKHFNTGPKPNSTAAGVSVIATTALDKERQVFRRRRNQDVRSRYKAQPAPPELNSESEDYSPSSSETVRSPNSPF

[8] = target: Cyclin-dependent kinase 1/cyclin B1 (Homo sapiens) (UniProt P06493+P14635); test: Inhibition of human CDK1/cyclinB assessed as residual activity at 1 uM using Histone H1 as substrate by [gamma-33P]-ATP assay relative to control; assay type: protein-complex assay
[9] = target: STE20/SPS1-related proline-alanine-rich protein kinase (Homo sapiens) (UniProt Q9UEW8); test: Inhibition of human STK39 assessed as residual activity at 1 uM using MBP as substrate by [gamma-33P]-ATP assay relative to control
[10] = target: Serine/threonine-protein kinase D3 (Homo sapiens) (UniProt O94806); test: Inhibition of human PKCnu assessed as residual activity at 1 uM using KKLNRTLSVA as substrate by [gamma-33P]-ATP assay relative to control
[11] = target: Receptor tyrosine-protein kinase erbB-2 (Homo sapiens) (UniProt P04626); test: Inhibition of human ERBB2 assessed as residual activity at 1 uM using poly[Glu:Tyr] (4:1) as substrate by [gamma-33P]-ATP assay relative to control
[12] = target: Inactive tyrosine-protein kinase PEAK1 (Homo sapiens) (UniProt Q9H792); test: Inhibition of human PEAK1 assessed as residual activity at 1 uM using MBP as substrate by [gamma-33P]-ATP assay relative to control
[13] = target: Misshapen-like kinase 1 (Homo sapiens) (UniProt Q8N4C8); test: Inhibition of human MINK1 assessed as residual activity at 1 uM using MBP as substrate by [gamma-33P]-ATP assay relative to control
Sequence of Misshapen-like kinase 1 (Homo sapiens) (Q8N4C8 whole entry, looked up): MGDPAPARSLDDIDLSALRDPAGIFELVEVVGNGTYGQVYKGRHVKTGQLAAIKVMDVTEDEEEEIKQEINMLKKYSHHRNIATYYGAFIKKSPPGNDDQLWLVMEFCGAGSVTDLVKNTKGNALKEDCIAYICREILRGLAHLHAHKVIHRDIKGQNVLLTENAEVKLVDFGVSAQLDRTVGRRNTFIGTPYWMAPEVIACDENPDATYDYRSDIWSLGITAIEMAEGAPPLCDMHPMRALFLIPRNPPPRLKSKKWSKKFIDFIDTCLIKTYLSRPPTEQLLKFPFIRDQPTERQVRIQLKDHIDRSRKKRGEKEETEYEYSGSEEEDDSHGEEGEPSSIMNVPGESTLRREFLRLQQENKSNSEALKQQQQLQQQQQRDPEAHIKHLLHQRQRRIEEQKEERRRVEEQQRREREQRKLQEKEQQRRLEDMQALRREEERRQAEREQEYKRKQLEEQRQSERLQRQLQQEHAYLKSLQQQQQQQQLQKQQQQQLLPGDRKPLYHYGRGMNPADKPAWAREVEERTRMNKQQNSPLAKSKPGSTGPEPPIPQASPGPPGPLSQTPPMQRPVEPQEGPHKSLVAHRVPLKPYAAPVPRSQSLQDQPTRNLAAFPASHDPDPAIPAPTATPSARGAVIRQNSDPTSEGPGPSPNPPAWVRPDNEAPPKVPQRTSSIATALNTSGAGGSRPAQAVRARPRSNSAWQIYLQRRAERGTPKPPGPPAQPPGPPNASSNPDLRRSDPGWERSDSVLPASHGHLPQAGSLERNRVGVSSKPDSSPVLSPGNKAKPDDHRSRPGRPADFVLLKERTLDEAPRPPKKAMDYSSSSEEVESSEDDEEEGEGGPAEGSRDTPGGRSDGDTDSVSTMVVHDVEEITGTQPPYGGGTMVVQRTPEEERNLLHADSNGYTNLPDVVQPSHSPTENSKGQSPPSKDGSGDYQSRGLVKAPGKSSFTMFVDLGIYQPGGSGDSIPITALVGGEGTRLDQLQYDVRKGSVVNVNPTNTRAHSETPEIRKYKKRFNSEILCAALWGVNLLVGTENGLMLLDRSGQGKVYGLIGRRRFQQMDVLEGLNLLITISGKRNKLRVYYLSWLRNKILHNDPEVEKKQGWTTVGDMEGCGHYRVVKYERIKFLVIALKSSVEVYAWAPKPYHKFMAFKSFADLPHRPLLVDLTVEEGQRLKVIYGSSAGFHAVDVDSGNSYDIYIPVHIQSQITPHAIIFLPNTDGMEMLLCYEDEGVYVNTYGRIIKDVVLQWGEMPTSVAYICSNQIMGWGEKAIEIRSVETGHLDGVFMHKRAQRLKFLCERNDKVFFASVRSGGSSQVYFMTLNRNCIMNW

[14] = target: Focal adhesion kinase 1 (Homo sapiens) (UniProt Q05397); test: Inhibition of human FAK assessed as residual activity at 1 uM using poly[Glu:Tyr] (4:1) as substrate by [gamma-33P]-ATP assay relative to control
[15] = target: Serine/threonine-protein kinase Nek8 (Homo sapiens) (UniProt Q86SG6); test: Inhibition of human NEK8 assessed as residual activity at 1 uM using casein as substrate by [gamma-33P]-ATP assay relative to control
Sequence of Serine/threonine-protein kinase Nek8 (Homo sapiens) (Q86SG6 whole entry): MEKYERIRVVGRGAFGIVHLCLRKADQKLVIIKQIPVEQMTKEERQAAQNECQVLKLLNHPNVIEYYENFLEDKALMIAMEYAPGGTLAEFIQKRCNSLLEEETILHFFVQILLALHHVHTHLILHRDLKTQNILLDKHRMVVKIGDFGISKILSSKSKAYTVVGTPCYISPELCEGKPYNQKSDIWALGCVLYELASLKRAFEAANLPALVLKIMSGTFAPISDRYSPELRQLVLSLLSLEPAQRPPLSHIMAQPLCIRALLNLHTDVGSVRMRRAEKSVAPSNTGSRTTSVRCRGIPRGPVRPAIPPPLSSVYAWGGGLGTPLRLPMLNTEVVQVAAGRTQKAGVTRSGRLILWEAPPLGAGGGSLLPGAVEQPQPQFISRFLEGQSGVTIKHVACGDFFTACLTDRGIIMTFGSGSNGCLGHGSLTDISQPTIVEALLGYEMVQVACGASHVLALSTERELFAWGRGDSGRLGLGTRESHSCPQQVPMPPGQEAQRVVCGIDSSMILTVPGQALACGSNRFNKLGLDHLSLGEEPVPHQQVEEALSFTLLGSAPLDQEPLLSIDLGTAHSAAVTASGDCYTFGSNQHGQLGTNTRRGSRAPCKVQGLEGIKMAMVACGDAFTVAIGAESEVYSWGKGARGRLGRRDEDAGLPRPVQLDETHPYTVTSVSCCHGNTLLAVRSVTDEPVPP

[16] = target: Protein kinase C delta type (Homo sapiens) (UniProt Q05655); test: Inhibition of human PKCdelta assessed as residual activity at 1 uM using ERMRPRKRQGSVRRRV as substrate by [gamma-33P]-ATP assay relative to control
Sequence of Protein kinase C delta type (Homo sapiens) (Q05655 whole entry, looked up): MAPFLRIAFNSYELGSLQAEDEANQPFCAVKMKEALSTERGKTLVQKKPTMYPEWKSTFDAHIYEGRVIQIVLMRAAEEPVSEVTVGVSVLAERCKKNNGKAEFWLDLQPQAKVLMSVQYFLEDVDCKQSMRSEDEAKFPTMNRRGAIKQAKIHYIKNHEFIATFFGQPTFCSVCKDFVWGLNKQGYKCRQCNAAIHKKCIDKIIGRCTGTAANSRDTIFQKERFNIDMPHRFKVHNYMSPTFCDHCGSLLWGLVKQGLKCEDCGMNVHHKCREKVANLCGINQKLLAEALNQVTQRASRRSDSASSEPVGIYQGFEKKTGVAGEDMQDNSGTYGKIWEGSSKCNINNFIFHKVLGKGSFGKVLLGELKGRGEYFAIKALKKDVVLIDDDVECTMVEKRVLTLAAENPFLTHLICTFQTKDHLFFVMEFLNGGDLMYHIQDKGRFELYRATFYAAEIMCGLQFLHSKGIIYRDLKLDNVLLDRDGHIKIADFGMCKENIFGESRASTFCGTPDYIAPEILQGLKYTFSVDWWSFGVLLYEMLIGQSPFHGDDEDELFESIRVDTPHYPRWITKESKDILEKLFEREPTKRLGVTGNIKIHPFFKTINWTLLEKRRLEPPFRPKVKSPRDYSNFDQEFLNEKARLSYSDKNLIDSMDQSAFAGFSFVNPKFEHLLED

[17] = target: CDK1/Cyclin E (Homo sapiens) (UniProt P06493+P24864); test: Inhibition of human CDK1/cyclinE assessed as residual activity at 1 uM using RB protein as substrate by [gamma-33P]-ATP assay relative to control; assay type: protein-complex assay
[18] = target: Serine/threonine-protein kinase PLK2 (Homo sapiens) (UniProt Q9NYY3); test: Inhibition of human PLK2 assessed as residual activity at 1 uM using casein as substrate by [gamma-33P]-ATP assay relative to control
[19] = target: Serine/threonine-protein kinase MARK2 (Homo sapiens) (UniProt Q7KZI7); test: Inhibition of human MARK2 assessed as residual activity at 1 uM using KKKVSRSGLYRSPSMPENLNRPR as substrate by [gamma-33P]-ATP assay relative to control
[20] = target: Tyrosine-protein kinase JAK3 (Homo sapiens) (UniProt P52333); test: Inhibition of human JAK3 assessed as residual activity at 1 uM using poly[Glu:Tyr] (4:1) as substrate by [gamma-33P]-ATP assay relative to control

Row | Structure (SMILES) | Activity [1] [%] | Activity [2] [%] | Activity [3] [%] | Activity [4] [%] | Activity [5] [%] | Activity [6] [%] | Activity [7] [%] | Activity [8] [%] | Activity [9] [%] | Activity [10] [%] | Activity [11] [%] | Activity [12] [%] | Activity [13] [%] | Activity [14] [%] | Activity [15] [%] | Activity [16] [%] | Activity [17] [%] | Activity [18] [%] | Activity [19] [%] | Activity [20] [%]
1 | C(=C\c1ccccc1)/C[N+]12CN3CN(CN(C3)C1)C2 | 90.5 to 97 | 112 to 120 | 96.4 to 98.9 | 92.5 to 93.7 | 104 to 107 | 93.2 to 94.5 |  |  |  |  |  |  |  |  |  |  |  |  |  | 
2 | ClC/C=C/C[N+]12CN3CN(CN(C3)C1)C2 |  |  |  |  |  |  | 92.8 to 93.2 | 94.3 to 96.5 | 94.4 to 94.9 | 93.2 to 96.7 | 96.7 to 96.8 | 94.2 to 94.3 | 91.9 to 94.8 | 92.5 to 96 | 88.6 to 89 | 115 to 117 | 98.8 to 100 | 96.6 to 96.8 | 94.5 | 94.2 to 96.6
